Laboratory results as given in patent US9556156B2, “Compounds, their synthesis and their uses” (priority 2012, dated 2017).
Read-outs that look alike come from different tables or passages of the source.

Tested on: Sprague Dawley (SD) rat
Type: in vivo
Description: The general anesthetic activity of Propofol novel drug compound 1004 was evaluated in rats. All animal experiments were performed as per CPCSEA guidelines. The studies were carried out in Sprague Dawley (SD) rat in the weight range […] by intravenous tail vein dosing over a period of 10 seconds. The formulations of the compound 1004 for IV dosing in rats were prepared in pre-mix PEG400 and saline. Formulations of 1004 equivalent to 5 mpk (14 mpk of compd. 1004) and 7.5 mpk (equivalent to 21 mpk of compound 1004) of parent drug Propofol were prepared in 15% PEG400 and 85% normal saline. The monitoring of distinguishable levels of sedation was started during the dosing period and continued till animals regained consciousness. The onset, duration of sleep and recovery time was recorded.

SMILES: CC(C)c1cccc(C(C)C)c1O [Propofol, 2,6-diisopropylphenol]
- General Anesthesia (GA) (rat, in vivo): No GA
- Recovery (rat, in vivo): Complete

SMILES: CNC(=O)c1ccc[n+](COC(=O)Oc2c(C(C)C)cccc2C(C)C)c1.[I-] [Compound 1004, 1-(((2,6-diisopropylphenoxy)carbonyloxy)methyl)-3-(methylcarbamoyl)pyridinium iodide]
- Recovery (SD rat, IV tail vein, Propofol Eq. 7.5 mpk, vehicle 15% PEG400, 85% NS): Complete
- General Anesthesia (GA) (onset of GA, SD rat, IV tail vein over 10 seconds, Propofol Eq. 7.5 mpk, vehicle 15% PEG400, 85% NS): After 1 min
